Data published in patent US8697739B2, “Bicyclic acetyl-CoA carboxylase inhibitors and uses thereof” (Novartis AG, priority 2010, dated 2014).

target: T1, human acetyl-CoA carboxylase 2 (ACC2) (Homo sapiens, UniProt O00763); assay: Acetyl-CoA carboxylase enzyme assay (malonyl-CoA formation by LC/MS/MS); type: biochemical; conditions: recombinant human ACC2 (aa 144-2458); read-out: IC50 ACC2
T1 construct: The cDNA encoding amino acids 144 to 2458 of human acetyl-CoA carboxylase 2; made in house; host or cells: Sf9 insect cells (baculovirus, pFastBac1)
In short: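 Malonyl-CoA formation was read by LC/MS/MS MRM against a [13C3]-malonyl-CoA internal standard, after acetic acid quench. The enzyme was baculovirus/Sf9-expressed human ACC2 residues 144–2458, given 15 minutes room-temperature compound preincubation in HEPES pH 7.5 buffer with MgCl2, citrate and DTT. Substrate solution held 50 μM acetyl-CoA, 120 μM ATP and 2 mM KHCO3.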

T1 sequence (O00763 144-2458): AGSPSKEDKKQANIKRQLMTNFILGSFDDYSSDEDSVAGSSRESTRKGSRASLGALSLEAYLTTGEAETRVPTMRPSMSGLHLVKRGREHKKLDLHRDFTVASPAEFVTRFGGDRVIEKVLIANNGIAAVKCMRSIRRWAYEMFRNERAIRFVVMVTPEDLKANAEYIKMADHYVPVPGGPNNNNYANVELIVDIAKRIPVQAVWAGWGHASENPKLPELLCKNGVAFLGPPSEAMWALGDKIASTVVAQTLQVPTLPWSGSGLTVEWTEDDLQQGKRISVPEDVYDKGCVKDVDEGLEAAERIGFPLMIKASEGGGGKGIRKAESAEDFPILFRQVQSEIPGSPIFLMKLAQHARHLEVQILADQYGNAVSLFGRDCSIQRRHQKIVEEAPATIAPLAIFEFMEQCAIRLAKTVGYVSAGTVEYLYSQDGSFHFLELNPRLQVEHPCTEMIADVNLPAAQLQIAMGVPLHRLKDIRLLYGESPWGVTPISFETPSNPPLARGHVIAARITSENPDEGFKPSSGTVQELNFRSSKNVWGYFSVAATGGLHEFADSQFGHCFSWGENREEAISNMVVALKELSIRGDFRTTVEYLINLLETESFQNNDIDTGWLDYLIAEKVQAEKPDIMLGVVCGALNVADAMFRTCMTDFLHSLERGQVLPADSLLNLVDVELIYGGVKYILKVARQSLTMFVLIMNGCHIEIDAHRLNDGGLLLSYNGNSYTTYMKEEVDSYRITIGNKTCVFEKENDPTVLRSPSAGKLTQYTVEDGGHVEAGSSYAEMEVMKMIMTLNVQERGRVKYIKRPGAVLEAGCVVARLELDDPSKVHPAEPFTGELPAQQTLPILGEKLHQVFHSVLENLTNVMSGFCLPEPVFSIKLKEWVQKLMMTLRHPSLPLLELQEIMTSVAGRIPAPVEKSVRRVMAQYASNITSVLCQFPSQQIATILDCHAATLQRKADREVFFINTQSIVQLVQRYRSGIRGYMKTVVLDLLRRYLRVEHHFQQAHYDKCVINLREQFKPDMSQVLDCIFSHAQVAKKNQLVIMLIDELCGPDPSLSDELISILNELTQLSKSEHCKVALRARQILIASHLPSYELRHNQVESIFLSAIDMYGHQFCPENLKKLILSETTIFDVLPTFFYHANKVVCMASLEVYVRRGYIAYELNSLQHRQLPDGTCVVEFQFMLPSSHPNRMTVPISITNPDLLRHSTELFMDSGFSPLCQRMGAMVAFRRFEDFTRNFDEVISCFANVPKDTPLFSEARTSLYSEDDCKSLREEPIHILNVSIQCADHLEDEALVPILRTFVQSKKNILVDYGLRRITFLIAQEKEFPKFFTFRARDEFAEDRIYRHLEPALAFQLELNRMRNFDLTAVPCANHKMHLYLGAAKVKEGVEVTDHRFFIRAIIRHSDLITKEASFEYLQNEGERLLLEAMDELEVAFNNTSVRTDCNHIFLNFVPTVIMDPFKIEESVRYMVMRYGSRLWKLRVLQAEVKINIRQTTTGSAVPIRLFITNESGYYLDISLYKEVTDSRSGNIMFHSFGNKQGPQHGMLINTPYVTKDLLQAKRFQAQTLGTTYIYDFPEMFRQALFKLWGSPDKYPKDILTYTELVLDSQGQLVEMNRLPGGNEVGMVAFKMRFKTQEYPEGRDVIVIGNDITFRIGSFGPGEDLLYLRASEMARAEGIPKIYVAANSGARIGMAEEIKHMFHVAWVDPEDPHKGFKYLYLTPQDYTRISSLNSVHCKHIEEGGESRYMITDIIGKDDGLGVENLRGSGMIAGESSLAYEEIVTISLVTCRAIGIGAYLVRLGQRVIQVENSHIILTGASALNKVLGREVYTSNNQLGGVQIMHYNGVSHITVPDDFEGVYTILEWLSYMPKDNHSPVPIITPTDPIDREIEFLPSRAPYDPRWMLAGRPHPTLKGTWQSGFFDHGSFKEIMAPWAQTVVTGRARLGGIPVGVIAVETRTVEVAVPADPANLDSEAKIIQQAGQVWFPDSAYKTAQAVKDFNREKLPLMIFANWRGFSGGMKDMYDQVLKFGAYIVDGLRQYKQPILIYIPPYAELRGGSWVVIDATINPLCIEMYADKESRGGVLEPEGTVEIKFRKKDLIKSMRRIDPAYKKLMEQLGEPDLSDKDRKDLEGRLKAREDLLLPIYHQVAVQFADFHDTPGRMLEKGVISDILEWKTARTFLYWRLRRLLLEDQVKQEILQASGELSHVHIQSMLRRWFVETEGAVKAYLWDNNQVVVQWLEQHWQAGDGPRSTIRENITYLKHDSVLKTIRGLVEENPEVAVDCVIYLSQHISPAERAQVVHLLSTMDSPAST

**Q.** For CCOc1ccc2cc(S(=O)(=O)N[C@H]3CC[C@](C)(C(=O)N[C@H](C)c4ccc(F)cc4)CC3)ccc2n1 [Example 231, (1r,4R)-4-(2-ethoxyquinoline-6-sulfonamido)-N-((R)-1-(4-fluorophenyl)ethyl)-1-methylcyclohexanecarboxamide], which IC50 is on record?
**A.** The IC50 was 10 nM.

**Q.** For CC(C)COC(=O)N1CCNc2ncc(S(=O)(=O)N[C@H]3CC[C@H](C(=O)N[C@H](C)c4ccc(F)cc4)CC3)cc21 [Example 200, isobutyl 7-(N-((1R,4r)-4-((R)-1-(4-fluorophenyl)ethylcarbamoyl)cyclohexyl)sulfamoyl)-3,4-dihydropyrido[3,2-b]pyrazine-1(2H)-carboxylate], which IC50 is on record?
**A.** The IC50 was 60 nM.

**Q.** For Cc1nc2cc(S(=O)(=O)NC3CCC(c4nnc(C(C)C)o4)CC3)ccc2[nH]1 (centres unmarked) [Example 613, N-((1r,4r)-4-(5-isopropyl-1,3,4-oxadiazol-2-yl)cyclohexyl)-2-methyl-1H-benzo[d]imidazole-5-sulfonamide], which IC50 is on record?
**A.** Its IC50 is 39600 nM.

**Q.** With C[C@@H](NC(=O)[C@H]1CC[C@H](NS(=O)(=O)c2ccc3c(c2)nc(-c2ccccc2)n3C)CC1)c1ccc(F)cc1 [Example 4, (1r,4R)—N—((R)-1-(4-fluorophenyl)ethyl)-4-(1-methyl-2-phenyl-1H-benzo[d]imidazole-5-sulfonamido)cyclohexanecarboxamide] as the compound, how does the IC50 read?
**A.** The IC50 was 13 nM.

**Q.** For CC(C)(C)c1nnc([C@H]2CC[C@H](NS(=O)(=O)c3ccc4[nH]c(-c5ccc(N6CCOCC6)cc5)nc4c3)CC2)o1 [Example 588, N-((1r,4r)-4-(5-tert-butyl-1,3,4-oxadiazol-2-yl)cyclohexyl)-2-(4-morpholinophenyl)-1H-benzo[d]imidazole-5-sulfonamide], which IC50 is on record?
**A.** The IC50 was 267 nM.

**Q.** With Cc1cccc(-c2nc3ccc(S(=O)(=O)Nc4ccc(C(=O)OC(C)C)cc4)cc3[nH]2)c1 [Example 501, isopropyl 4-(2-m-tolyl-1H-benzo[d]imidazole-6-sulfonamido)benzoate] as the compound, how does the IC50 read?
**A.** The IC50 was 1660 nM.

**Q.** For CC(C)(C)c1nnc([C@H]2CC[C@H](NS(=O)(=O)c3ccc4[nH]c(Nc5ccccc5)nc4c3)CC2)o1 [Example 597, N-((1r,4r)-4-(5-tert-butyl-1,3,4-oxadiazol-2-yl)cyclohexyl)-2-(phenylamine)-1H-benzo[d]imidazole-5-sulfonamide], which IC50 is on record?
**A.** Its IC50 is 162 nM.

**Q.** For CC(C)c1nnc(-c2ccc(NS(=O)(=O)c3ccc4[nH]c(Nc5ccc(N6CCN(C)CC6)cc5)nc4c3)cc2)o1 [Example 605, N-(4-(5-isopropyl-1,3,4-oxadiazol-2-yl)phenyl)-2-(4-(4-methylpiperazin-1-yl)phenylamino)-1H-benzo[d]imidazole-5-sulfonamide], which IC50 is on record?
**A.** The IC50 was 138 nM.

**Q.** COCc1ccc(-c2cc3ccc(S(=O)(=O)N[C@H]4CC[C@H](C(=O)N5CCNC(C(F)(F)F)C5)CC4)cc3n2C)cc1 (some centres unmarked) [Example 339, 2-(4-(methoxymethyl)phenyl)-1-methyl-N-((1r,4r)-4-(3-(trifluoromethyl)piperazine-1-carbonyl)cyclohexyl)-1H-indole-6-sulfonamide] was tested. Which IC50 did it give?
**A.** Its IC50 is 30 nM.

**Q.** With O=C([C@H]1CC[C@H](NS(=O)(=O)c2ccc3cc(-c4ccccc4C(F)(F)F)[nH]c3c2)CC1)N1CCNC[C@@H]1c1ccccc1 [Example 333, N-((1S,4r)-4-((S)-2-phenylpiperazine-1-carbonyl)cyclohexyl)-2-(2-(trifluoromethyl)phenyl)-1H-indole-6-sulfonamide] as the compound, how does the IC50 read?
**A.** Its IC50 is 65 nM.

**Q.** Which IC50 does the source give for C[C@@H](NC(=O)[C@H]1CC[C@H](NS(=O)(=O)c2ccc3c(c2)NCCN3)CC1)c1ccc(F)cc1 [Example 149, (1r,4R)-N-((R)-1-(4-fluorophenyl)ethyl)-4-(1,2,3,4-tetrahydroquinoxaline-6-sulfonamido)cyclohexanecarboxamide] here?
**A.** Its IC50 is 290 nM.

**Q.** Which IC50 does the source give for CCOc1ccc2cc(S(=O)(=O)N[C@H]3CC[C@H](C(=O)N[C@H](COP(=O)(OC(C)(C)C)OC(C)(C)C)c4ccccc4)CC3)ccc2n1 [Example 268, di-tert-butyl (S)-2-((1r,4S)-4-(2-ethoxyquinoline-6-sulfonamido)cyclohexanecarboxamido)-2-phenylethyl phosphate] here?
**A.** Its IC50 is 435 nM.

**Q.** Which IC50 does the source give for C[C@@H](NC(=O)[C@H]1CC[C@H](NS(=O)(=O)c2ccc3cc(-c4ccc(CO)cc4)[nH]c3c2)CC1)c1ccc(F)cc1 [Example 296, (1r,4R)-N-((R)-1-(4-fluorophenyl)ethyl)-4-(2-(4-(hydroxymethyl)phenyl)-1H-indole-6-sulfonamido)cyclohexanecarboxamide] here?
**A.** Its IC50 is less than 10 nM.

**Q.** CC(C)OC(=O)c1ccc(NS(=O)(=O)c2ccc3[nH]c(Nc4ccc(F)cc4)nc3c2)cc1 [Example 522, isopropyl 4-(2-(4-fluorophenylamino)-1H-benzo[d]imidazole-5-sulfonamido)benzoate] was tested. Which IC50 did it give?
**A.** Its IC50 is 320 nM.

**Q.** Cc1cc(CO)ccc1-c1cc2ccc(S(=O)(=O)N[C@H]3CC[C@H](C(=O)N[C@H](C)c4ccc(F)cc4)CC3)cc2n1C [Example 315, (1r,4R)-N-((R)-1-(4-fluorophenyl)ethyl)-4-(2-(4-(hydroxymethyl)-2-methylphenyl)-1-methyl-1H-indole-6-sulfonamido)cyclohexanecarboxamide] was tested. Which IC50 did it give?
**A.** Its IC50 is 20 nM.

**Q.** With C[C@@H](NC(=O)[C@H]1CC[C@H](NS(=O)(=O)c2ccc3[nH]c(Nc4cccc(C#N)c4)nc3c2)CC1)c1ccccc1 [Example 570, (1r,4R)-4-(2-(3-cyanophenylamino)-1H-benzo[d]imidazole-5-sulfonamido)-N-((R)-1-phenylethyl)cyclohexanecarboxamide] as the compound, how does the IC50 read?
**A.** Its IC50 is less than 10 nM.

**Q.** With Cc1cc(CO)ccc1-c1cc2ccc(S(=O)(=O)N[C@H]3CC[C@H](C(=O)N4CCOCC4)CC3)cc2[nH]1 [Example 308, 2-(4-(hydroxymethyl)-2-methylphenyl)-N-((1r,4r)-4-(morpholine-4-carbonyl)cyclohexyl)-1H-indole-6-sulfonamide] as the compound, how does the IC50 read?
**A.** The IC50 was 60 nM.

**Q.** Which IC50 does the source give for CC(C)OC(=O)c1ccc(NS(=O)(=O)c2ccc3[nH]c(Nc4ccc(N5CCOCC5)nc4)nc3c2)cc1 [Example 539, isopropyl 4-(2-(6-morpholinopyridin-3-ylamino)-1H-benzo[d]imidazole-5-sulfonamido)benzoate] here?
**A.** The IC50 was 221 nM.

**Q.** How did the IC50 turn out when Cn1c(-c2ccccc2)cc2cc(S(=O)(=O)N[C@H]3CC[C@H](C(=O)N[C@@H](c4ccccc4)C(C)(C)C(=O)O)CC3)ccc21 [Example 97, (S)-2,2-dimethyl-3-((1r,4S)-4-(1-methyl-2-phenyl-1H-indole-5-sulfonamido)cyclohexanecarboxamido)-3-phenylpropanoic acid] was run?
**A.** Its IC50 is less than 10 nM.

**Q.** With Cc1cc(-c2ccc3cc(S(=O)(=O)N[C@H]4CC[C@H](C(=O)N[C@H](C)c5ccc(F)cc5)CC4)ccc3n2)ccn1 [Example 229, (1r,4R)-N-((R)-1-(4-fluorophenyl)ethyl)-4-(2-(2-methylpyridin-4-yl)quinoline-6-sulfonamido)cyclohexanecarboxamide] as the compound, how does the IC50 read?
**A.** Its IC50 is 20 nM.

**Q.** With CC(=O)c1ccc(Nc2nc3cc(S(=O)(=O)N[C@H]4CC[C@H](C(=O)N[C@H](C)c5ccccc5)CC4)ccc3[nH]2)cc1 [Example 572, (1r,4R)-4-(2-(4-acetylphenylamino)-1H-benzo[d]imidazole-5-sulfonamido)-N-((R)-1-phenylethyl)cyclohexanecarboxamide] as the compound, how does the IC50 read?
**A.** The IC50 was less than 10 nM.

**Q.** Which IC50 does the source give for Cc1ccccc1-c1cc2ccc(S(=O)(=O)N[C@H]3CC[C@H](C(=O)N4CCOCC4)CC3)cc2[nH]1 [Example 136, N-((1R,4r)-4-(morpholine-4-carbonyl)cyclohexyl)-2-o-tolyl-1H-indole-6-sulfonamide] here?
**A.** Its IC50 is 187 nM.

**Q.** How did the IC50 turn out when Cc1ccnc2ncc(S(=O)(=O)N[C@H]3CC[C@H](C(=O)N[C@H](C)c4ccc(F)cc4)CC3)cc12 [Example 140, (1r,4R)-N-((R)-1-(4-fluorophenyl)ethyl)-4-(5-methyl-1,8-naphthyridine-3-sulfonamido)cyclohexanecarboxamide] was run?
**A.** The IC50 was 986 nM.

**Q.** CCOC(=O)N1CCNc2ncc(S(=O)(=O)N[C@H]3CC[C@H](C(=O)N[C@H](C)c4ccc(F)cc4)CC3)cc21 [Example 209, ethyl 7-(N-((1R,4r)-4-((R)-1-(4-fluorophenyl)ethylcarbamoyl)cyclohexyl)sulfamoyl)-3,4-dihydropyrido[3,2-b]pyrazine-1(2H)-carboxylate] was tested. Which IC50 did it give?
**A.** Its IC50 is 20 nM.

**Q.** With CC(C)CC1CCc2cc(S(=O)(=O)N[C@H]3CC[C@H](C(=O)N[C@H](C)c4ccc(F)cc4)CC3)ccc2N1 (stereo partly drawn) [Example 167, (1r,4R)-N-((R)-1-(4-fluorophenyl)ethyl)-4-(2-isobutyl-1,2,3,4-tetrahydroquinoline-6-sulfonamido)cyclohexanecarboxamide] as the compound, how does the IC50 read?
**A.** The IC50 was 205 nM.

**Q.** How did the IC50 turn out when Cc1cc(CO)ccc1-c1cc2ccc(S(=O)(=O)N[C@H]3CC[C@H](C(=O)N4CCNCC4)CC3)cc2[nH]1 [Example 312, 2-(4-(hydroxymethyl)-2-methylphenyl)-N-((1r,4r)-4-(piperazine-1-carbonyl)cyclohexyl)-1H-indole-6-sulfonamide] was run?
**A.** Its IC50 is 599 nM.

**Q.** C[C@@H](NC(=O)[C@H]1CC[C@H](NS(=O)(=O)c2ccc3nc(O)ccc3c2)CC1)c1ccc(F)cc1 [Example 54, (1r,4R)-N-((R)-1-(4-fluorophenyl)ethyl)-4-(2-hydroxyquinoline-6-sulfonamido)cyclohexanecarboxamide] was tested. Which IC50 did it give?
**A.** The IC50 was 193 nM.

**Q.** With Cn1c(C2CC2)cc2ccc(S(=O)(=O)N[C@H]3CC[C@H](C(=O)N4CCCC(C(C)(C)O)C4)CC3)cc21 (some centres unmarked) [Example 368, 2-cyclopropyl-N-((1r,4r)-4-(3-(2-hydroxypropan-2-yl)piperidine-1-carbonyl)cyclohexyl)-1-methyl-1H-indole-6-sulfonamide] as the compound, how does the IC50 read?
**A.** The IC50 was 145 nM.

**Q.** Which IC50 does the source give for CN1CCN(c2ccc(-c3nc4cc(S(=O)(=O)N[C@H]5CC[C@H](C(=O)N6CCOCC6)CC5)ccc4[nH]3)cc2)CC1 [Example 583, 2-(4-(4-methylpiperazin-1-yl)phenyl)-N-((1r,4r)-4-(morpholine-4-carbonyl)cyclohexyl)-1H-benzo[d]imidazole-5-sulfonamide] here?
**A.** The IC50 was 55 nM.
